Assay results reported in publication doi:10.1101/2025.11.04.686469, “Discovery of Host-Directed Small Molecules with Broad Anti-Leishmanial Efficacy” (bioRxiv, 2025).
pIC50: −log10 of the molar value. ≈ marks a conversion by molar mass, not a printed value. Like-named read-outs stand apart in the source and are kept apart here.

What was measured:
[1] = test system: intracellular L. donovani amastigotes; test: Luminescent-based evaluation of intracellular anti-leishmanial activity in THP-1 macrophages; type: cell-based, Leishmania donovani
Outline: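 PMA-differentiated THP-1 macrophages (150 nM, 72 h) were infected 18 h with firefly luciferase-expressing L. donovani LV82 promastigotes, then washed. Infected cells were treated with compounds at 0.1-10 μM for 72 h. Surviving intracellular amastigotes were quantified by firefly luciferase luminescence after cell lysis and 10 min substrate incubation at room temperature.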

THP-1 macrophages = test: Effect of compounds on host cell viability (MTT); type: cell-based
Outline: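 Viability was read as MTT reduction: 2 h with 0.5 mg/mL, formazan dissolved in isopropanol, A560 with 670 nm background subtracted. The macrophages were PMA-differentiated THP-1 cells (150 nM, 72 h), treated 24 h at 1–50 μM or, for some compounds, 72 h at 1–300 μM.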

[2] = test system: intracellular L. donovani amastigotes; test: Image-based (Giemsa staining) evaluation of intracellular anti-leishmanial activity in bone marrow derived macrophages; type: cell-based, Leishmania donovani; conditions: Giemsa staining, 72-hour incubation, read-out: Intracellular L. donovani amastigotes IC50
Procedure: Bone marrow derived macrophages (BMDMs) were isolated from BALB/c mice and cultured as previously described. […] Completely differentiated BMDMs are obtained after 7 days of culture with media change every 2 days. Harvested cells were seeded onto 10 mm glass cover slips at 5 x 10^5 cells/ well of a 24 well plate in DMEM media (without LCM) and allowed to adhere overnight. […] After infection, cells were washed three times with fresh media to remove extracellular promastigotes and treated with compounds for a 72-hour incubation. BMDM cells were then washed with phosphate buffered saline, fixed with ice-cold methanol, and stained with Giemsa (5% v/v in water). The cover slips with stained cells are mounted onto glass slides and imaged on EVOS XL (100X, Thermo Fisher Scientific). Leishmania amastigotes per 100 macrophages were determined in a blinded manner.

[3] = test system: extracellular L. donovani promastigotes; test: Effect of compounds on promastigote viability (resazurin assay); type: cell-based, Leishmania donovani; conditions: 72-hour incubation, resazurin assay; read-out: Extracellular L. donovani promastigotes MIC50
Procedure: The effect of compounds on extracellular promastigotes was evaluated using a resazurin-based assay as described previously. In short, late log phase Leishmania promastigotes were seeded in a 96 well plate at 1 x 10^5 parasites per well and treated with drugs (0.5 – 200 μM) for 72 hours at 25°C. Ten microliters of resazurin (0.02% w/v) were added to the treated parasites to achieve a final concentration of 0.002% w/v and incubated for 24 hours. Viability of the promastigotes was assessed by fluorescence (excitation 544 nm, emission 590 nm, SpectraMax M2, Molecular Devices).

[4] = THP1 macrophages, luminescence assay, 72 hours of treatment, read-out: Intracellular L. donovani amastigotes Lum IC50
[5] = THP-1 macrophages, 72-hour incubation, MTT assay, read-out: 72 hr viability of THP-1 macrophages LC50
[6] = read-out: 24 hr viability of THP-1 macrophages 24h LC50, THP-1 macrophages, 24-hour incubation, MTT assay
[7] = intracellular Leishmania donovani in THP1 macrophages, luminescence assay (Supplemental Table 2), read-out: Lum IC50
[8] = read-out: 24h LC50, THP1 macrophages, 24-hour incubation, MTT assay (Supplemental Table 2)

SMILES	pIC50 [1, 4]	CC50 (THP-1 macrophages; [5])	CC50 (THP-1 macrophages; [6])	pIC50 [2]	MIC50 [3]	pIC50 [1, 7]	CC50 (THP-1 macrophages; [8])
N[C@H]1CCN(c2ccc(-n3nc(C(F)(F)F)cc3-c3ccc(-c4ccc(C(F)(F)F)cc4)cc3)cc2)C1 [Compound 130]	6.70	6.4 µM	4.2 µM	5.80	2.1 µM (≈ 1.08 µg/mL)	–	–
FC(F)(F)c1ccc(-c2ccc(-c3cc(C(F)(F)F)nn3-c3ccc(NC4CCNC4)cc3)cc2)cc1 (stereo not drawn) [Compound 25]	6.15	6.3 µM	28.9 µM	5.60	2.1 µM (≈ 1.08 µg/mL)	–	–
Nc1ccc(CNC2CCN(c3ccc(-n4nc(C(F)(F)F)cc4-c4ccc(-c5ccc(C(F)(F)F)cc5)cc4)cc3)C2)cc1 (stereo not drawn) [Compound 23]	6.40	6.9 µM	5.8 µM	6.05	4.0 µM (≈ 2.49 µg/mL)	–	–
FC(F)(F)c1cn(-c2ccc(OC3CCNC3)cc2)c(-c2ccc(-c3ccccc3)cc2)n1 (stereo not drawn) [Compound 328]	–	–	–	–	–	5.59	11.1 µM
CC(C)(C)OC(=O)NC1CCN(c2ccc(-n3nc(C(F)(F)F)cc3-c3ccc(-c4ccc(C(F)(F)F)cc4)cc3)cc2)C1 (stereo not drawn) [Compound 140]	–	–	–	–	–	< 5.00	> 50 µM
CC(C)C#Cc1ccc(-c2cc(C(F)(F)F)nn2-c2ccc(N3CCC(N)C3)cc2)cc1 (stereo not drawn) [Compound 98]	–	–	–	–	–	< 5.00	19.5 µM
FC(F)(F)c1cn(-c2ccc(N3CCNCC3)cc2)c(-c2ccc(Cl)cc2)n1 [Compound 51]	–	–	–	–	–	5.09	25.7 µM
NCC(=O)Nc1ccc(-n2nc(C(F)(F)F)c3c2CCCC3)cc1 [Compound 331]	–	–	–	–	–	5.00	47 µM
O=C(CNCc1ccccc1)Nc1ccc(-n2nc(C(F)(F)F)cc2C2CCCCC2)cc1 [Compound 353]	–	–	–	–	–	5.38	17.5 µM
FC(F)(F)c1cc(C2CCCCC2)nn1-c1ccc(Br)cc1 [Compound 216]	–	–	–	–	–	< 5.00	> 50 µM
CN(C)c1ccc(-c2cc(C(F)(F)F)nn2-c2ccc(N3CCC(N)C3)cc2)cc1 (stereo not drawn) [Compound 231]	–	–	–	–	–	5.74	10.8 µM
O=C(NCc1cccc(F)c1)c1ccc(-n2cc(C(F)(F)F)nc2-c2ccc(-c3ccc(C(F)(F)F)cc3)cc2)c(F)c1 [Compound 181]	–	–	–	–	–	< 5.00	28.7 µM
